Assay results from ChEMBL document CHEMBL4265970, “2'-Aryl and 4'-arylidene substituted pyrazolones: As potential α-amylase inhibitors” (Eur J Med Chem, 2018).

How the values were obtained:
[1] = target: T1, Alpha amylase (Homo sapiens, UniProt P0DUB6); assay: Inhibition of alpha-amylase (unknown origin) using starch as substrate preincubated for 10 mins followed by substrate addition measured after 10 mins by dinitrosalicylic acid color reagent based assay
T1 sequence (P0DUB6 whole entry): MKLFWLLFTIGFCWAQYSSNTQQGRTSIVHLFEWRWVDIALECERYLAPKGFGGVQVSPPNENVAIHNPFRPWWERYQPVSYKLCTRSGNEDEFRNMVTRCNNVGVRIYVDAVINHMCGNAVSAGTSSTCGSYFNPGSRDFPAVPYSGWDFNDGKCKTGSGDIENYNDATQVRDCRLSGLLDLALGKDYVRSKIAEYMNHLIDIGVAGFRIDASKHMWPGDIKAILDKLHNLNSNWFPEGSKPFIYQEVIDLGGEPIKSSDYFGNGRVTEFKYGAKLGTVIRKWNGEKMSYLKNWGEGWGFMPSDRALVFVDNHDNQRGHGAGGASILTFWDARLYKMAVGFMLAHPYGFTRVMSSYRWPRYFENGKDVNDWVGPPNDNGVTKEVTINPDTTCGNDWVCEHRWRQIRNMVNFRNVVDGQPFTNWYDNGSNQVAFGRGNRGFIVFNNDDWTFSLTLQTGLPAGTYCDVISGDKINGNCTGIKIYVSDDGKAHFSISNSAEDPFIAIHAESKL

[2] = target: T1, Alpha amylase; assay: Mixed-type inhibition of alpha-amylase (unknown origin) using p-nitrophenylR-D-maltoside as substrate incubated for 30 mins at 1 min time interval
[3] = test system: CC1=NN(c2ccc(Cl)cc2)C(=O)/C1=C/c1cc(Cl)cc(Cl)c1O; assay: (§1) Mixed-type inhibition of alpha-amylase (unknown origin) assessed as Vmax for substrate using p-nitrophenylR-D-maltoside as substrate incubated for 30 mins at 1 min time interval; conditions: Homo sapiens
[4] = test system: CC1=NN(c2ccc(Cl)cc2)C(=O)/C1=C/c1cc(F)ccc1Br; assay: as §1; conditions: Homo sapiens
[5] = test system: CC1=NN(c2ccc(Cl)cc2)C(=O)/C1=C/c1ccc(Br)cc1; assay: as §1; conditions: Homo sapiens
[6] = test system: COc1cc(/C=C2/C(=O)N(c3ccc(Cl)cc3)N=C2C)c(OC)cc1Br; assay: as §1; conditions: Homo sapiens
[7] = test system: COc1cc(/C=C2/C(=O)N(c3ccc(Cl)cc3)N=C2C)cc(OC)c1Br; assay: as §1; conditions: Homo sapiens
[8] = test system: COc1cc(/C=C2/C(=O)N(c3ccc(Cl)cc3)N=C2C)ccc1OC(C)=O; assay: as §1; conditions: Homo sapiens
[9] = test system: COc1ccc(/C=C2/C(=O)N(c3ccc(Cl)cc3)N=C2C)c(Cl)c1OC; assay: as §1; conditions: Homo sapiens
[10] = test system: COc1ccc(/C=C2/C(=O)N(c3ccc(Cl)cc3)N=C2C)cc1Br; assay: as §1; conditions: Homo sapiens
[11] = test system: CC1=NN(c2ccc(Cl)cc2)C(=O)/C1=C/c1cc(Cl)cc(Cl)c1O; assay: (§2) Mixed-type inhibition of alpha-amylase (unknown origin) assessed as Km for substrate using p-nitrophenylR-D-maltoside as substrate incubated for 30 mins at 1 min time interval; conditions: Homo sapiens
[12] = test system: CC1=NN(c2ccc(Cl)cc2)C(=O)/C1=C/c1cc(F)ccc1Br; assay: as §2; conditions: Homo sapiens
[13] = test system: CC1=NN(c2ccc(Cl)cc2)C(=O)/C1=C/c1ccc(Br)cc1; assay: as §2; conditions: Homo sapiens
[14] = test system: COc1cc(/C=C2/C(=O)N(c3ccc(Cl)cc3)N=C2C)c(OC)cc1Br; assay: as §2; conditions: Homo sapiens
[15] = test system: COc1cc(/C=C2/C(=O)N(c3ccc(Cl)cc3)N=C2C)cc(OC)c1Br; assay: as §2; conditions: Homo sapiens
[16] = test system: COc1cc(/C=C2/C(=O)N(c3ccc(Cl)cc3)N=C2C)ccc1OC(C)=O; assay: as §2; conditions: Homo sapiens
[17] = test system: COc1ccc(/C=C2/C(=O)N(c3ccc(Cl)cc3)N=C2C)c(Cl)c1OC; assay: as §2; conditions: Homo sapiens
[18] = test system: COc1ccc(/C=C2/C(=O)N(c3ccc(Cl)cc3)N=C2C)cc1Br; assay: as §2; conditions: Homo sapiens

Row | Compound | IC50 [1] [µM] | Ki [2] [µM] | further results
1 | COc1ccc(/C=C2/C(=O)N(c3ccc(Cl)cc3)N=C2C)c(OC)c1 | 2.01 |  | 
2 | CC1=NN(c2ccc(Cl)cc2)C(=O)/C1=C/c1c[nH]c2ccccc12 | 2.16 |  | 
3 | COc1cc(/C=C2/C(=O)N(c3ccc(Cl)cc3)N=C2C)c(OC)cc1Br | 1.86 | 3.12 | 
4 | COc1cc(/C=C2/C(=O)N(c3ccc(Cl)cc3)N=C2C)cc(OC)c1 | 2.21 |  | 
5 | COc1cc(/C=C2/C(=O)N(c3ccc(Cl)cc3)N=C2C)ccc1OC(C)=O | 1.94 | 2.98 | 
6 | COc1ccc(/C=C2/C(=O)N(c3ccc(Cl)cc3)N=C2C)cc1Br | 1.92 | 3.84 | 
7 | Alpha amylase (Homo sapiens) (from UniProt P0DUB6) |  |  | Vmax [3]: 79.7 µM/min; Vmax [4]: 71.2 µM/min; Vmax [5]: 73.4 µM/min; Vmax [6]: 71.4 µM/min; Vmax [7]: 65.2 µM/min; Vmax [8]: 70.5 µM/min; Vmax [9]: 70.6 µM/min; Vmax [10]: 68.3 µM/min; Km [11]: 3.4 mM; Km [12]: 3.11 mM; Km [13]: 3.26 mM; Km [14]: 3.04 mM; Km [15]: 2.92 mM; Km [16]: 2.9 mM; Km [17]: 3.14 mM; Km [18]: 2.86 mM
8 | COc1cc(/C=C2/C(=O)N(c3ccc(Cl)cc3)N=C2C)cc(OC)c1Br | 1.68 | 3.24 | 
9 | CC1=NN(c2ccc(Cl)cc2)C(=O)/C1=C/c1cc(F)ccc1Br | 1.93 | 3.42 | 
10 | COc1ccc(/C=C2/C(=O)N(c3ccc(Cl)cc3)N=C2C)c(Cl)c1OC | 1.97 | 3.54 | 
11 | COc1ccccc1/C=C1/C(=O)N(c2ccc(Cl)cc2)N=C1C | 2.02 |  | 
12 | COc1cc(/C=C2/C(=O)N(c3ccc(Cl)cc3)N=C2C)ccc1OCc1ccccc1 | 2.33 |  | 
13 | CC1=NN(c2ccc(Cl)cc2)C(=O)/C1=C/c1cc(Cl)cc(Cl)c1O | 1.61 | 4.26 | 
14 | COc1ccc(/C=C2/C(=O)N(c3ccc(Cl)cc3)N=C2C)c(OC)c1OC | 2.1 |  | 
15 | CC1=NN(c2ccc(Cl)cc2)C(=O)/C1=C/c1ccc([N+](=O)[O-])cc1 | 2.38 |  | 
16 | CC1=NN(c2ccc(Cl)cc2)C(=O)/C1=C/c1ccc(Br)cc1 | 1.92 | 3.84 | 
17 | COc1ccc(/C=C2/C(=O)N(c3ccc(Cl)cc3)N=C2C)cc1OC | 2.03 |  | 
18 | COc1ccc(OC)c(/C=C2/C(=O)N(c3ccc(Cl)cc3)N=C2C)c1 | 2.13 |  | 
19 | COc1cc(/C=C2/C(=O)N(c3ccc(Cl)cc3)N=C2C)cc(OC)c1OC | 2.19 |  | 
